Here are results for seven compounds from patent USRE41784E1, “Adhesive material” (Sony Corporation, priority 2000, dated 2010).

Like-named read-outs stand apart in the source and are kept apart here.

The test system of data set [1] is mutant strain (his−) of Salmonella requiring histidine. The settings on record: starting material (component) of the adhesive materials. The protocol: The Ames test referred to herein is also known as a mutagenicity test, and is one of tests in which bacteria are used to screen chemical substances for carcinogenicity or mutagenicity. […] This mutation is the result of DNA damage, and carcinogenicity is believed to become more pronounced with increased ease of mutation. Consequently, an adhesive material having high biological safety must give a negative result of the Ames test.
This test was performed using direct reverse mutation of a mutant strain (his−) of Salmonella requiring histidine to a non-requiring strain (his+) under the action of a test substance. A specific test method involved preparing histidine-free media to which a metabolically active substance (S9) bad been added, and histidine-free media devoid of the metabolically active substance (S9). The test substance was admixed into these media, a strain (his−) requiring histidine was cultured, and the bacterial colony count of a medium containing the test substance was compared with the bacterial colony count of a medium devoid of the substance. If the first value was greater than the second, the test result was concluded to be positive, otherwise the result was concluded to be negative.

Data set [2] relates to skin of rabbits. Kind of data set: Draize test (skin irritation, PII value). Conditions: for PII value: preferred acrylic/methacrylic acid esters; for PH value: starting material (component) of the adhesive materials.
Description: (§1) The PII, or skin irritation, value is a skin toxicity index measured in accordance with the method defined by the Consumer Product Safety Commission of the USA (Draize Method; The Consumer Product Safely Commission of the USA, the Code of Federal Regulations, Title 16, Section 1500.41). A lower index corresponds to less pronounced skin irritation.
(§2) Hair was removed with the aid of an electric hair clipper from the lumbar regions of six healthy rabbits (body weight: 2.0-4.0 kg) to expose the skin over an area of about 10 cm^2. The skin on the right side of the vertebra was incised with a surgical knife over an area of 2.5 cm^2, creating a lesion. The skin on the left side of the vertebra was left intact, and pads obtained by applying 0.5 mL samples were affixed at two locations on the right and left of the vertebra. The pads were peeled off 24 and 72 hours following affixation, redness and swelling were visually observed, the results were graded using a five-point system (levels 0 to 4), a gross mean was obtained using the average values for each rabbit, and the gross mean value was termed the PII value.
Data set [3] concerns skin of rabbits. Conditions: rabbit, in vivo.
Description: as §1, §2

Turning to `C=C(C)C(=O)OCC(C)(C)COC(=O)C(=C)C` [Neopentyl glycol dimethacrylate], in data set [1], the Mutagenicity entry is listed as “negative”. For the same compound, in the data set on skin of rabbits [2], the PII value amounted to 0.0 and the PH value was found to be 0.0.

Take `C=C(C)C(=O)OCCO` [hydroxyethyl methacrylate]: in the data set on skin of rabbits [2], the PII value is 0.0.

In turn, 1,3-butanediol methacrylate displayed a PII value in the data set with skin of rabbits [2] of 0.0.

In turn, `C=C(C)C(=O)OCC(C)O` (centres unmarked) [2-hydroxypropyl methacrylate] displayed a PII value with skin of rabbits [2] of 0.0.

Regarding ditrimethylol propane tetraacrylate, the PII value in the data set on skin of rabbits [2] worked out at 0.0.

Consider `C=CC(=O)OCCOc1ccccc1` [Phenoxyethyl acrylate], for which, in the data set with skin of rabbits [2], the PH value came to 1.5.

As to Polypropylene glycol diacrylate, the Mutagenicity result in data set [1] is listed as “negative”. In addition, in the data set on skin of rabbits [3], the PH value is on record as 0.0 and the PII value is on record as 0.0.
